# Laboratory results reported in patent US7705028B2, “Farnesoid X receptor agonists” (GlaxoSmithKline LLC, priority 2005, dated 2010).
# Where a name gives a salt, the structure may show the parent alone. Read-outs that look alike come from different tables or passages of the source.
# Experiments:
# [1] = test system: hepatic stellate cells (HSC); conditions: cultured HSCs; cited from earlier work
# [2] = test system: rodent models of hepatic fibrosis; conditions: multiple rodent models; cited from earlier work
# [3] = biological target: T1, human FXR ligand binding domain (LBD) (Homo sapiens, UniProt Q96RI1); assay: FXR Cofactor Binding Assay (TRF, SRC-1 peptide recruitment); assay type: biochemical; conditions: read-out: Activity (pEC50) (converted)
# T1 construct: polyhistidine (pRSET-A vector leader) (N); made in house; host or cells: E. coli BL21 (DE3), pRSET-A vector
# T1 sequence (Q96RI1 237-472 isoform Q96RI1-2): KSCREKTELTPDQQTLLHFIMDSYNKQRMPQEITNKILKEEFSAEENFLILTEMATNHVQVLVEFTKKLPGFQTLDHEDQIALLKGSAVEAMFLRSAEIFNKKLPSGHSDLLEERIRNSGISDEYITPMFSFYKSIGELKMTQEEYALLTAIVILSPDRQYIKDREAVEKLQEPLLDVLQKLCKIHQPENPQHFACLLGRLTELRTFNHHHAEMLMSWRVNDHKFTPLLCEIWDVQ
# T1 sequence (Q15788 676-700 partner): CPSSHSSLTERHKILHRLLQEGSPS
# Source text: Determination of a ligand mediated cofactor peptide interaction to quantify ligand binding to the nuclear receptor Farnasoid X Receptor (FXR). The method measures the ability of putative ligands to modulate the interaction between the purified bacterial expressed human FXR ligand binding domain (LBD) and a synthetic biotinylated peptide based on residues 676-700 of steroid receptor coactivator-1 (SRC-1) (LXXLL-containing domain-2 where L is the amino acid leucine and X indicates any other amino acid (LCD2), 676-700). The sequence of the SRC-1 peptide used is as published in Iannone, M. A. et al, Cytometry 44:326-337 (2001) where the N-terminus was biotinylated (B) and the C-terminus was amidated. Detection of the associated complex was measured by time resolved fluorescence (TRF). The purified LBD of FXR was labeled with biotin then mixed with stoichiometric amounts of allophycocyanin (APC) labeled streptavidin (Molecular Probes). The biotinylated peptide was then mixed with a ½ stoichiometric amount of europium labeled streptavidin (Wallac Inc). Each was then blocked with a 5 fold excess of biotin and allowed to equilibrate for 15 min. Equimolar amounts of receptor and peptide were mixed together and were allowed to equilibrate for at least 30 min prior to the addition to either a variable or constant concentrations of the sample for which the affinity is to be determined. After equilibration, the time-resolved fluorescent signal was quantitated using a fluorescent plate reader. The affinity of the test compound was estimated from a plot of fluorescence versus concentration of test compound added.
# A basal level of FXR: peptide formation is observed in the absence of added ligand. Ligands that promote the complex formation induce a concentration-dependent increase in time-resolved fluorescent signal. Compounds which bind equally well to both non-/un-complexed FXR and to the FXR: peptide complex would be expected to give no change in signal, whereas ligands which bind preferentially to the non-/un-complexed receptor would be expected to induce a concentration-dependent decrease in the observed signal.
# Human FXR Ligand Binding Domain (FXR LBD) was expressed in E. coli strain BL21 (DE3) as an amino-terminal polyhistidine tagged fusion protein. Expression was under the control of an isopropyl-β-D-thiogalactopyranoside (IPTG) inducible T7 promoter. DNA encoding this recombinant protein is subcloned into the pRSET-A expression vector (Invitrogen). The coding sequence of Human FXR LBD was derived from Genbank accession number U 68233 (amino acids 237 to 472).
# Ten-liter fermentation batches were grown in Rich PO4 media with 0.1 mg/mL Ampicillin at 25° C. for 12 hours, cooled to 9° C. and held at that temperature for 36 hours to a density of OD600=14. At this cell density, 0.25 mM IPTG is added and induction proceeded for 24 hours at 9° C., to a final OD600=16. Cells are harvested by centrifugation (20 minutes, 3500× gravity, 4° C.), and concentrated cell slurries were stored in phosphate buffered saline (PBS) at […].
# Routinely, 30-40 g cell paste (equivalent to 2-3 liters of the fermentation batch) was resuspended in 200-250 mL Tris buffered saline (TBS), pH 7.2 (25 mM Tris-Hydroxymethylamino methane (Tris), 150 mM NaCl). Cells were lysed by passing 3 times through a French Press and cell debris was removed by centrifugation (30 minutes, 20,000× gravity, 4° C.). The cleared supernatant was filtered through course pre-filters, and TBS, pH 7.2, 500 mM imidazole was added to obtain a final imidazole concentration of 50 mM. This lysate was loaded onto a column (6×8 cm) packed with Sepharose [Ni^++ charged] Chelation resin (Pharmacia) and pre-equilibrated with TBS pH 7.2/50 mM imidazole. After washing to baseline absorbance with equilibration buffer, the column was washed with one column volume of TBS pH 7.2 containing 90 mM imidazole. FXR LBD was eluted directly with 365 mM imidazole. […]
# [4] = test system: high-fat diet induced insulin resistant, glucose intolerant, and obese mouse model; assay: High-fat diet induced insulin resistant, glucose intolerant, obese mouse model; assay type: in vivo; conditions: C57BL mice, 100 mg/kg twice a day orally
# Source text: Compounds of formula (I) are also useful for the treatment of diabetes mellitus in a subject, such as a mammal, particularly a human. For example, the compounds of formula (I) are useful for the treatment of type 2 diabetes. The effects of an FXR agonist, GW4064, on body weight, glucose tolerance, serum glucose, serum insulin, serum triglyceride, and liver triglyceride contents via oral administration have been observed in an high-fat diet induced insulin resistant, glucose intolerant, and obese mouse model. Male 20 to 25 g C57BL mice (Charles River, Indianapolis, Ind.) were housed at 72° F. and 50% relative humidity with a 12 h light and dark cycle and fed with standard rodent chow (Purina 5001, Harlan Teklad, Indianapolis, Ind.) or a high-fat diet (TD93075, Harlan Teklad, Indianapolis, Ind.) for seven weeks. After two weeks, mice on high-fat diet were randomized to vehicle or treatment groups. There were no significant difference in body weight, body fat mass, serum glucose and insulin, and area under the curve (AUC) for glucose in glucose tolerance test (GTT) between the vehicle group and the treatment group. Starting from the fourth week, mice were given either vehicle or GW4064 (100 mg/kg) twice a day orally. Mice on the standard rodent chow were also given vehicle as a control. At the end of the third week of compound treatment, a GTT was performed and body composition was measured using the quantitative magnetic resonance (QMR) method. […] Blood glucose during GTT was measured using Bayer Glucometer Elite® XL. Serum chemistry levels were measured using the Instrumentation Laboratory Ilab600™ clinical chemistry analyzer (Instrumentation Laboratory, Boston, Mass.). Liver triglyceride contents were measured using the methanolic-KOH saponification method and a triglyceride assay kit (GPO-TRINDER, Sigma Diagnostics, St. Louis, Mo.). […] It is believed that the result may have been due to a decrease in fat mass.
# [5] = test system: bile duct-ligated mouse model of cholestasis and intestinal bacterial overgrowth; conditions: cited from earlier work
# [6] = test system: mice on a lithogenic diet; conditions: cited from earlier work
# [7] = protocol †: 0.1 μL of test compound, final assay volume 10 μL
# [8] = protocol ⋄: 0.5 μL of test compound, final assay volume 25 μL
SMILES,"EC50 [3, 7] [nM]","EC50 [3, 8] [nM]",also measured
"CC[C@H]1[C@@H](O)[C@@H]2[C@H](CC[C@]3(C)[C@@H]([C@H](C)CCC(=O)O)CC[C@@H]23)[C@@]2(C)CC[C@@H](O)C[C@@H]12 [Example 6EtCDCA, 6-ethyl-chenodeoxycholic acid]",,,expression of fibrotic markers such as α-smooth muscle actin and α1(I)collagen [1]: decreased expression of fibrotic markers; hepatic fibrosis [2]: prevent development and promote resolution of hepatic fibrosis
"CC(C)c1onc(-c2c(Cl)cccc2Cl)c1COc1ccc(-c2ccc3c(C(=O)O)cccc3c2)cc1 [Example 1, 6-[4-({[3-(2,6-Dichlorophenyl)-5-(1-methylethyl)-4-isoxazolyl]methyl}oxy)phenyl]-1-naphthoic Acid Sodium Salt]",< 100,< 100,
"CC(C)c1onc(CCc2c(Cl)cccc2Cl)c1COc1ccc(-c2ccc3cccc(C(=O)O)c3c2)cc1 [Example 11, 7-[4-({[3-[2-(2,6-dichlorophenyl)ethyl]-5-(1-methylethyl)-4-isoxazolyl]methyl}oxy)phenyl]-1-naphthalenecarboxylic acid]",1020 to 10000,,
"CC(C)c1onc(-c2c(Cl)cccc2Cl)c1COc1ccc(-c2ccc3cc(C(=O)O)ccc3c2)cc1 [Example 6, 6-(4-{[3-(2,6-dichlorophenyl)-5-isopropylisoxazol-4-yl]methoxy}phenyl)-2-naphthoic acid]",102 to 1000,,
CC(C)c1onc(-c2c(Cl)cccc2Cl)c1COc1ccc(/C=C/c2cccc(C(=O)O)c2)c(Cl)c1 [GW4064],,,high-fat diet induced body weight gain [4]: reduced the high-fat diet induced body weight gain; glucose tolerance (GTT) ([4]; end of third week of treatment): appeared to improve glucose tolerance; liver triglyceride content ([4]; fourth week of treatment): reduced liver triglyceride content; serum glucose ([4]; fourth week of treatment): decreased; serum insulin ([4]; fourth week of treatment): decreased; serum triglyceride ([4]; fourth week of treatment): decreased; effect on translocation of bacteria in FXR null mice ([5]; FXR null mice): lost in FXR null mice; bacterial overgrowth ([5]; bile duct-ligated mice): decreased bacterial overgrowth; mucosal barrier ([5]; bile duct-ligated mice): improved mucosal barrier; translocation of bacteria to mesenteric lymph nodes ([5]; bile duct-ligated mice): decreased translocation of bacteria to mesenteric lymph nodes; effect on cholesterol crystal formation in FXR null mice ([6]; FXR null mice): lost in FXR null mice; formation of cholesterol crystals in the bile ([6]; mice on a lithogenic diet): prevented the formation of cholesterol crystals in the bile
"CC(C)c1onc(CCc2c(Cl)cccc2Cl)c1COc1ccc(-c2ccc3c(C(=O)O)cccc3c2)cc1 [Example 5, 6-[4-({[3-[2-(2,6-dichlorophenyl)ethyl]-5-(1-methylethyl)-4-isoxazolyl]methyl}oxy)phenyl]-1-naphthalenecarboxylic acid]",102 to 1000,< 100,
"CC(C)c1onc(-c2c(Cl)cccc2Cl)c1COc1ccc(-c2ccc3ccc(C(=O)O)cc3c2)cc1 [Example 8, 7-[4-({[3-(2,6-dichlorophenyl)-5-(1-methylethyl)-4-isoxazolyl]methyl}oxy)phenyl]-2-naphthalenecarboxylic acid]",102 to 1000,,
"CC(C)c1onc(Cc2c(Cl)cccc2Cl)c1COc1ccc(-c2ccc3c(C(=O)O)cccc3c2)cc1 [Example 4, 6-[4-({[3-[(2,6-dichlorophenyl)methyl]-5-(1-methylethyl)-4-isoxazolyl]methyl}oxy)phenyl]-1-naphthalenecarboxylic acid]",,102 to 1000,
"CC(C)c1onc(-c2c(Cl)cccc2Cl)c1COc1ccc(-c2ccc3c(C(=O)O)cccc3c2)c(Cl)c1 [Example 2, 6-[2-Chloro-4-({[3-(2,6-dichlorophenyl)-5-(1-methylethyl)-4-isoxazolyl]methyl}oxy)phenyl]-1-naphthalenecarboxylic acid]",102 to 1000,,
"CC(C)c1onc(CCc2c(Cl)cccc2Cl)c1COc1ccc(-c2ccc3ccc(C(=O)O)cc3c2)cc1 [Example 9, 7-[4-({[3-[2-(2,6-dichlorophenyl)ethyl]-5-(1-methylethyl)-4-isoxazolyl]methyl}oxy)phenyl]-2-naphthalenecarboxylic acid]",102 to 1000,,
"CC(C)c1onc(-c2c(Cl)cccc2Cl)c1COc1ccc(-c2ccc3cccc(C(=O)O)c3c2)cc1 [Example 10, 7-[4-({[3-(2,6-dichlorophenyl)-5-(1-methylethyl)-4-isoxazolyl]methyl}oxy)phenyl]-1-naphthalenecarboxylic acid]",1020 to 10000,,
"O=C(O)c1cccc2cc(-c3ccc(OCc4c(-c5c(Cl)cccc5Cl)noc4C4CCC4)cc3)ccc12 [Example 3, 6-[4-({[5-cyclobutyl-3-(2,6-dichlorophenyl)-4-isoxazolyl]methyl}oxy)phenyl]-1-naphthalenecarboxylic acid]",102 to 1000,,

# Continued, in another order:
"EC50 [3, 7] [nM]","EC50 [3, 8] [nM]",SMILES,also measured
,1020 to 10000,"CC(C)c1onc(-c2c(Cl)cccc2Cl)c1COc1ccc(-c2ccc3c(C(N)=O)cccc3c2)cc1 [Example 12a, 6-[4-({[3-(2,6-dichlorophenyl)-5-(1-methylethyl)-4-isoxazolyl]methyl}oxy)phenyl]-1-naphthalenecarboxamide]",
,1020 to 10000,"CC(C)c1onc(-c2c(Cl)cccc2Cl)c1COc1ccc(-c2ccc3c(C#N)cccc3c2)cc1 [Example 12b, 6-[4-({[3-(2,6-dichlorophenyl)-5-(1-methylethyl)-4-isoxazolyl]methyl}oxy)phenyl]-1-naphthalenecarbonitrile]",
,102 to 1000,"CC(C)c1onc(-c2c(Cl)cccc2Cl)c1COc1ccc(-c2ccc3c(-c4nn[nH]n4)cccc3c2)cc1 [Example 12c, 5-{6-[4-({[3-(2,6-dichlorophenyl)-5-(1-methylethyl)-4-isoxazolyl]methyl}oxy)phenyl]-1-naphthalenyl}-1H-tetrazole]",
